By IC50 is commonly meant the concentration at which inhibition is half-maximal. As a reminder, the Ki is the equilibrium dissociation constant of an inhibitor or competing ligand from its target. A high value points to weaker binding.

In series [1] the test system is HL-60 leukemia cells carrying no MLL fusion. The series is described as follows: cell viability assay (WST-8), HL-60. The series is classed as cell-based. To be noted: Homo sapiens, HL-60, 96 h, read-out: Cell Growth Inhibition IC50 (μM) HL-60. As for the experimental part: Cell viability was determined using the WST-8 cell proliferation assay kit (Dojindo Molecular Technologies) according to manufacturer's instructions. Three independent experiments in triplicates were performed.
A general note: Tetrazolium assays rely on reduction of a dye to a coloured formazan, in cell work by metabolically active cells.

Series [2] deals with T1, WDR5 (Homo sapiens, UniProt P61964).
T1 construct: N-terminal His-tagged WDR5 protein (residues 24-334), named WDR5Δ23; made in house; host or cells: E. coli Rosetta 2 (DE3)
The series is described as follows: fluorescence polarization (FP) based competitive binding assay to WDR5 protein. In general terms: In fluorescence polarisation assays a small probe gives low polarisation when free and higher when bound to something large.
Procedure: The plates were incubated at room temperature on a shaker for 3h, and then the mP values were measured using the Tecan Infinite M-1000 plate reader (Tecan U.S., Research Triangle Park, N.C.).

Series [3] has as its system MOLM-13 leukemia cells carrying MLL-AF9 fusion. The series is described as follows: cell viability assay (WST-8), MOLM-13. Type of series: cell-based. The settings on record: Homo sapiens, MOLM-13, 96 h, read-out: MOLM-13 IC50 (μM).
[4] abbreviates: amide bond, 15-membered ring, HATU/DIEA, DMF, with chain assembly.
The mark [5] stands for this setting: amide bond, 14-membered ring, HATU/DIEA, DMF, with chain assembly.

Read-outs that look alike come from different tables or passages of the source. Positions of bridges follow the written chain, without caps; N, C: chain ends. Non-standard residues stand in square brackets, D forms with d. Residues, ends and D or L forms follow the SMILES beside them. *: point of attachment. d(αMeK) = C[C@@](N)(CCCCN)C(=O)O; dPhg = N[C@@H](C(=O)O)c1ccccc1; Isobutyryl = CC(C)C(=O)*; Abu = CC[C@H](N)C(=O)O

For the setting “from (R)—N-((8S,11S,14R,Z)-11-ethyl-3-(methylamino)-9,12,15-trioxo-14-phenyl-2,4,10,13,16-pentaazanonadeca-2,18-dien-8-yl)-2-isobutyramido-2-methylpent-4-enamide, rcm bond, 16-membered ring, Hoveyda-Grubbs II (0.5 eq), CH2Cl2, 25.0 °C, 3 steps”, `CC[C@@H]1NC(=O)[C@H](CCCN/C(=N\C)NC)NC(=O)[C@](C)(NC(=O)C(C)C)CC=CCNC(=O)[C@@H](c2ccccc2)NC1=O` displayed a ring closure, yield after HPLC of 27%.

Consider `CC[C@@H]1NC(=O)[C@H](CCCN/C(=N\C)NS(=O)(=O)c2c(C)c(C)c3c(c2C)CC(C)(C)O3)NC(=O)[C@](C)(NC(=O)C(C)C)CC=CCNC(=O)[C@@H](c2ccccc2)NC1=O`, for which the ring closure, yield after HPLC (from (R)—N-((8S,11S,14R,E)-11-ethyl-9,12,15-trioxo-3-(2,2,4,6,7-pentamethyl-2,3-dihydrobenzofuran-5-sulfonamido)-14-phenyl-2,4,10,13,16-pentaazanonadeca-2,18-dien-8-yl)-2-isobutyramido-2-methylpent-4-enamide, rcm bond, 16-membered ring, Hoveyda-Grubbs II (0.5 eq), CH2Cl2, 25.0 °C, 3 steps) turned out to be 75%.

In turn, `CC[C@@H]1NC(=O)[C@H](CCCNC(=N)NS(=O)(=O)c2c(C)c(C)c3c(c2C)CC(C)(C)O3)NC(=O)[C@](C)(NC(=O)C(C)C)CC=CCCCCCNC(=O)[C@@H](c2ccccc2)NC1=O` came in with a ring closure, yield after HPLC (from iPrCO-(R)-αMe-allylGly-Arg(Pbf)-Abu-dPhg-NH-(hept-6-enyl)?, rcm bond, 20-membered ring, Hoveyda-Grubbs II (0.5 eq), CH2Cl2, 25.0 °C, 3 steps) of 27%.

Regarding `CC[C@@H]1NC(=O)[C@H](CCCNC(=N)NS(=O)(=O)c2c(C)c(C)c3c(c2C)CC(C)(C)O3)NC(=O)[C@](C)(NC(=O)C(C)C)CC=CCCCNC(=O)[C@@H](c2ccccc2)NC1=O`, the ring closure, yield after HPLC (from iPrCO-(R)-αMe-allylGly-Arg(Pbf)-Abu-dPhg-NH-(pent-4-enyl)?, rcm bond, 18-membered ring, Hoveyda-Grubbs II (0.5 eq), CH2Cl2, 25.0 °C, 3 steps) came to 46%.

On to `CC[C@@H]1NC(=O)[C@H](CCCNC(=N)NS(=O)(=O)c2c(C)c(C)c3c(c2C)CC(C)(C)O3)NC(=O)[C@](C)(NC(=O)C(C)C)CC=CCCNC(=O)[C@@H](c2ccccc2)NC1=O`, for which the ring closure, yield after HPLC (from iPrCO-(R)-αMe-allylGly-Arg(Pbf)-Abu-dPhg-NH-(but-3-enyl)?, rcm bond, 17-membered ring, Hoveyda-Grubbs II (0.5 eq), CH2Cl2, 25.0 °C, 3 steps) is 28%.

Compound `CC[C@@H]1NC(=O)[C@H](CCCNC(=N)NS(=O)(=O)c2c(C)c(C)c3c(c2C)CC(C)(C)O3)NC(=O)[C@](C)(NC(=O)C(C)C)CC=CCN(C)C(=O)[C@@H](c2ccc(Cl)cc2)NC1=O` gave a ring closure, yield after HPLC (from (R)—N-((6S,9S,12R)-12-(4-chlorophenyl)-9-ethyl-1-imino-14-methyl-7,10,13-trioxo-1-(2,2,4,6,7-pentamethyl-2,3-dihydrobenzofuran-5-sulfonamido)-2,8,11,14-tetraazaheptadec-16-en-6-yl)-2-isobutyramido-2-methylpent-4-enamide, rcm bond, 16-membered ring, Hoveyda-Grubbs II (0.5+0.5 eq), CH2Cl2, 45.0 °C, 3 steps) of 11%.

Compound `CC[C@@H]1NC(=O)[C@H](CCCNC(=N)NS(=O)(=O)c2c(C)c(C)c3c(c2C)CC(C)(C)O3)NC(=O)[C@](C)(NC(=O)C(C)C)CC=CCN(C)C(=O)[C@@H](c2ccc(F)cc2)NC1=O` registered a ring closure, yield after HPLC (from (R)—N-((6S,9S,12R)-9-ethyl-12-(4-fluorophenyl)-1-imino-14-methyl-7,10,13-trioxo-1-(2,2,4,6,7-pentamethyl-2,3-dihydrobenzofuran-5-sulfonamido)-2,8,11,14-tetraazaheptadec-16-en-6-yl)-2-isobutyramido-2-methylpent-4-enamide, rcm bond, 16-membered ring, Hoveyda-Grubbs II (0.5+0.5 eq), CH2Cl2, 45.0 °C, 3 steps) of 11%.

Compound `CC[C@@H]1NC(=O)[C@H](CCCNC(=N)NS(=O)(=O)c2c(C)c(C)c3c(c2C)CC(C)(C)O3)NC(=O)[C@](C)(NC(=O)C(C)C)CC=CCN(C)C(=O)[C@@H](c2ccccc2)NC1=O` came in with a ring closure, yield after HPLC (from (R)—N-((6S,9S,12R)-9-ethyl-1-imino-14-methyl-7,10,13-trioxo-1-(2,2,4,6,7-pentamethyl-2,3-dihydrobenzofuran-5-sulfonamido)-12-phenyl-2,8,11,14-tetraazaheptadec-16-en-6-yl)-2-isobutyramido-2-methylpent-4-enamide, rcm bond, 16-membered ring, Hoveyda-Grubbs II (0.5+0.5 eq), CH2Cl2, 45.0 °C, 3 steps) of 18%.

`CC[C@@H]1NC(=O)[C@H](CCCNC(=N)NS(=O)(=O)c2c(C)c(C)c3c(c2C)CC(C)(C)O3)NC(=O)[C@](C)(NC(=O)C(C)C)CC=CCNC(=O)[C@@H](c2ccccc2)NC1=O` had a ring closure, yield after HPLC (from iPrCO-(R)-αMe-allylGly-Arg(Pbf)-Abu-dPhg-NH-allyl?, rcm bond, 16-membered ring, Hoveyda-Grubbs II (0.5 eq), CH2Cl2, 25.0 °C, 3 steps) of 53%.

As to `CC[C@@H]1NC(=O)[C@H](CCCNC(=N)N)NC(=O)[C@](C)(NC(=O)C(C)C)CCCCNC(=O)[C@@H](c2ccccc2)NC1=O` [Cpd. No. 64, N-((3R,6S,9S,12R)-6-ethyl-9-(3-guanidinopropyl)-12-methyl-2,5,8,11-tetraoxo-3-phenyl-1,4,7,10-tetraazacyclohexadecan-12-yl)isobutyramide] (Isobutyryl-[d(αMeK)]R[Abu][dPhg]; lactam 1-C), in series [1], the IC50 was above 100 µM.

As for `CC[C@@H]1NC(=O)[C@H](CCCNC(=N)N)NC(=O)[C@](C)(NC(=O)C(C)C)CCNC(=O)[C@@H](c2ccc(OC)cc2)NC1=O` [Cpd. No. 93, N-((3R,6S,9S,12R)-6-ethyl-9-(3-guanidinopropyl)-3-(4-methoxyphenyl)-12-methyl-2,5,8,11-tetraoxo-1,4,7,10-tetraazacyclotetradecan-12-yl)isobutyramide], in series [2], the IC50 was 1.79 nM and the Ki was below 1 nM. For the same compound, the half-maximal inhibitory concentration (IC50) in series [3] was 0.083 µM.

In the case of `CC[C@@H]1NC(=O)[C@H](CCCNC(=N)N)NC(=O)[C@](C)(NC(=O)C(C)C)CCNC(=O)[C@@H](c2cccc(OC)c2)NC1=O` [Cpd. No. 94, N-((3R,6S,9S,12R)-6-ethyl-9-(3-guanidinopropyl)-3-(3-methoxyphenyl)-12-methyl-2,5,8,11-tetraoxo-1,4,7,10-tetraazacyclotetradecan-12-yl)isobutyramide], in series [2], the IC50 came to 4 nM and the Ki was below 1 nM. In addition, the IC50 in series [3] came to 0.56 µM.

As for `CC[C@@H]1NC(=O)[C@H](CCCNC2=NCCCN2)NC(=O)[C@](C)(NC(=O)C(C)C)CCNC(=O)[C@@H](c2ccc3ccccc3c2)NC1=O` [Cpd. No. 98, N-((3R,6S,9S,12R)-6-ethyl-12-methyl-3-(naphthalen-2-yl)-2,5,8,11-tetraoxo-9-(3-((1,4,5,6-tetrahydropyrimidin-2-yl)amino)propyl)-1,4,7,10-tetraazacyclotetradecan-12-yl)isobutyramide], in series [2], the IC50 was found to be 2.54 nM and the Ki was below 1 nM. Besides, in series [3], the IC50 was found to be 0.039 µM.

The compound “N-((3R,6S,9S,12R)-6-ethyl-9-(3-guanidinopropyl)-2,5,8,11-tetraoxo-3-phenyl-1,4,7,10-tetraazacyclohexadecan-12-yl)isobutyramide” gave a ring closure, yield after HPLC (amide bond, 16-membered ring, HATU/DIEA, DMF, 5.0 mM, with chain assembly) of 12.7%.

With “N-((3R,6S,9S,12R)-6-ethyl-9-(3-guanidinopropyl)-2,5,8,11-tetraoxo-3-phenyl-1,4,7,10-tetraazacyclopentadecan-12-yl)isobutyramide”, the ring closure, yield after HPLC under setting [4] was 21.5%.

The compound “N-((3R,6S,9S,12R)-6-ethyl-9-(3-guanidinopropyl)-2,5,8,11-tetraoxo-3-phenyl-1,4,7,10-tetraazacyclotetradecan-12-yl)isobutyramide” had a ring closure, yield after HPLC under setting [5] of 21.7%.

Take “N-((3R,6S,9S,12R)-6-ethyl-9-(3-guanidinopropyl)-2,5,8,11-tetraoxo-3-phenyl-1,4,7,10-tetraazacyclotridecan-12-yl)isobutyramide”: the ring closure, yield after HPLC (amide bond, 13-membered ring, HATU/DIEA, DMF, with chain assembly) amounted to 24.5%.

“N-((3R,6S,9S,12R)-6-ethyl-9-(3-guanidinopropyl)-12-methyl-2,5,8,11-tetraoxo-3-phenyl-1,4,7,10-tetraazacyclopentadecan-12-yl)isobutyramide” registered a ring closure, yield after HPLC under setting [4] of 19.4%.

In the case of “N-((3R,6S,9S,12R)-6-ethyl-9-(3-guanidinopropyl)-12-methyl-2,5,8,11-tetraoxo-3-phenyl-1,4,7,10-tetraazacyclotetradecan-12-yl)isobutyramide”, the ring closure, yield after HPLC under setting [5] was 8.7%.

In turn, “N-((3R,6S,9S,12R)-6-ethyl-12-methyl-2,5,8,11-tetraoxo-3-phenyl-9-(3-ureidopropyl)-1,4,7,10-tetraazacyclotetradecan-12-yl)isobutyramide” came in with a ring closure, yield after HPLC under setting [5] of 6%.

“N-((3R,6S,9S,12R)-6-ethyl-12-methyl-9-(3-(3-methylguanidino)propyl)-2,5,8,11-tetraoxo-3-phenyl-1,4,7,10-tetraazacyclotetradecan-12-yl)isobutyramide”: the ring closure, yield after HPLC under setting [5] stood at 15.4%.

Consider “N-((3R,6S,12R)-6-ethyl-12-methyl-2,5,8,11-tetraoxo-3-phenyl-9-(3-phenylpropyl)-1,4,7,10-tetraazacyclotetradecan-12-yl)isobutyramide”, for which the ring closure, yield after HPLC under setting [5] came to 7%.

The compound “N-((3R,6S,12R)-6-ethyl-12-methyl-2,5,8,11-tetraoxo-9-phenethyl-3-phenyl-1,4,7,10-tetraazacyclotetradecan-12-yl)isobutyramide” gave a ring closure, yield after HPLC under setting [5] of 7%.

The compound “N-((3R,6S,12R)-9-(3-amino-3-oxopropyl)-6-ethyl-12-methyl-2,5,8,11-tetraoxo-3-phenyl-1,4,7,10-tetraazacyclotetradecan-12-yl)isobutyramide” displayed a ring closure, yield after HPLC under setting [5] of 17%.

Under setting [5], “N-((3S,6S,9S,12R)-6-ethyl-12-methyl-9-(3-(3-methylguanidino)propyl)-2,5,8,11-tetraoxo-3-phenyl-1,4,7,10-tetraazacyclotetradecan-12-yl)isobutyramide” came in with a ring closure, yield after HPLC of 7%.

(Values after US20210130401A1, “PEPTIDOMIMETIC INHIBITORS OF THE WDR5-MLL INTERACTION” (THE REGENTS OF THE UNIVERSITY OF MICHIGAN, priority 2017, published 2021).)
